{
  "source": "paper PMC11272821",
  "about": "“Mechanistic safety assessment via multi-omic characterisation of systemic pathway perturbations following in vivo MAT2A inhibition” (Archives of Toxicology, 2024)",
  "origin": "cited, not measured here",
  "parameters": "method as in Agios Pharmaceuticals, AACR-NCI-EORTC 2019",
  "conditions": "ref Agios Pharmaceuticals, AACR-NCI-EORTC 2019, cited from earlier work",
  "data": [
    {"smiles": "COc1ccc(-c2c(Nc3ccccn3)[nH]c3c(C4=CCCCC4)c(-c4ccccc4)nn3c2=O)cc1", "note": "[AG-270]", "values": [
      {"measurement": "adverse finding in Phase 1 clinical trial", "setting": "proposed result of UGT1A1 inhibition", "value": "hyperbilirubinemia"},
      {"measurement": "dose limiting toxicity in Phase 1 clinical trial", "value": "reversible, acute liver injury"}
    ]}
  ]
}
